Source: patent publication US20260158102A1, “CYCLIC PEPTIDE DERIVATIVE COMPOSITION FOR TREATING OR PREVENTING NEUROPATHIC PAIN AND/OR INFLAMMATORY PAIN” (DKS Co. Ltd., priority 2022, published 2026)

Legend:
[1] = Measurement of blood glucose level in rat STZ-induced diabetes model; type: in vivo; conditions: mean ± SE
Method: (§1) Compound 9 (50 mg/mL) was diluted with water for injection to obtain a 1 mg/mL administration specimen. For the specimens to be administered at 0.1 mg/mL and 0.01 mg/mL, the specimen to be administered at 1 mg/mL was diluted stepwise with water for injection. Each administration specimen was divided into PP disposable tubes every day and stored in a storehouse (freezer: MDF-MU339H-PJ, PHC Corporation) under the condition of freezing (−30° C. to −20° C., measured value: −26.4 to −24.5° C.). Preparation was performed on the day before the start of administration.
(§2) Water for injection was added to and dissolved in Pregabalin taken out from the capsule to obtain 2 mg/mL. It was prepared before use.
(§3) • Animal species: rat (SPF) • Strain: Crl: CD (SD) • Date of animal acquisition, gender, age in weeks, number of animals acquired, and weight range after 1 day of acquisition • First and second courses: Apr. 6, 2022, male, 7 weeks old, 35 animals, 217 to 237 g • Third and fourth courses: Apr. 13, 2022, male, 7 weeks old, 35 animals, 216 to 235 g • Source: […].
(§4) • Dose volume: calculated at 2 mL/kg based on the body weight on the day of administration. • Number of times of administration: once • Day of administration: 7 days before the day of starting administration of the test substance.
(§5) • Dose volume: calculated at 1 mL/kg based on the body weight on the day of administration. • Number of times of administration: 9 times • Interval of administration: once every 3 days (evaluation was performed on the day after administration) • Day of starting administration: day 8 of STZ administration (day of STZ administration is counted as day 1).
(§6) • Dose volume: calculated at 10 mL/kg based on the body weight on the day of administration. • Number of times of administration: Administration was performed once on the day of evaluation of neuropathic pain, twice in total, and on the other days of administration, a vehicle for a control substance (water for injection) was orally administered.
On days 7 and 35 of STZ administration, about 50 μL of blood was collected from the tail vein using a winged injection needle (Terumo Corporation) equipped with a heparinized capillary (DRUMMOND […]).
The blood obtained above was centrifuged [centrifugal conditions: 4° C., 3,000 rpm (×2,150 g), 15 min] with a centrifuge (CF 9RX, Hitachi Koki Co., Ltd.) to obtain plasma. Blood glucose levels of a part of plasma obtained by blood collection on day 7 and day 35 after STZ administration were measured by hexokinase G-6 PDH method (L-type Wako Glu2, FUJIFILM Wako Pure Chemical Corporation) using a biochemical automatic analyzer (AU480, Beckman Coulter, Inc.). […] The plasma after the measurement was discarded.
The mean and standard error of each group were calculated for the 50% withdrawal threshold, body weight, and blood glucose level.
The body weight was an integer.
No significant difference test of body weight and blood glucose levels was performed.

[2] = Observation of general condition in rat STZ-induced diabetes model; type: in vivo; conditions: 20 mg/kg oral, number of animals, 10 per group
Method: as §1, §2, §3, §4, §5, §6
• Observation of general condition • Observation was performed once a day.

In the case of `CC(C)C[C@H](CN)CC(=O)O` [Pregabalin, reference compound], the “Blood glucose level, Glu” value ([1]; 20 mg/kg oral group, day 7 of STZ administration (before start of dosing)) is reported as 575.8 ± 20.0 mg/dL, the “Blood glucose level, Glu” value ([1]; 20 mg/kg oral, day 35 of STZ administration) is reported as 567.4 ± 22.5 mg/dL and the general condition ([2]; day 1 of STZ administration) is reported as 10. For the same compound, the general condition ([2]; day 2 of STZ administration) was 10, the general condition ([2]; day 3 of STZ administration) was 10 and the general condition ([2]; day 4 of STZ administration) was 10. For the same compound, the general condition ([2]; day 5 of STZ administration) was 10, the general condition ([2]; day 6 of STZ administration) was 10 and the general condition ([2]; day 7 of STZ administration) was 10. It also gave a general condition ([2]; day 8 of STZ administration) of 10, a general condition ([2]; day 9 of STZ administration) of 10 and a general condition ([2]; day 10 of STZ administration) of 10. The general condition ([2]; day 11 of STZ administration) was 10, the general condition ([2]; day 12 of STZ administration) was 10 and the general condition ([2]; day 13 of STZ administration) was 10. The general condition ([2]; day 14 of STZ administration) was 10, the general condition ([2]; day 15 of STZ administration) was 10 and the general condition ([2]; day 16 of STZ administration) was 10. The general condition ([2]; day 17 of STZ administration) was 10, the general condition ([2]; day 18 of STZ administration) was 10 and the general condition ([2]; day 19 of STZ administration) was 10. For the same compound, the general condition ([2]; day 20 of STZ administration) was 10, the general condition ([2]; day 21 of STZ administration) was 10 and the general condition ([2]; day 22 of STZ administration) was 10. For the same compound, the general condition ([2]; day 23 of STZ administration) was 10, the general condition ([2]; day 24 of STZ administration) was 10 and the general condition ([2]; day 25 of STZ administration) was 10. It also gave a general condition ([2]; day 26 of STZ administration) of 10, a general condition ([2]; day 27 of STZ administration) of 10 and a general condition ([2]; day 28 of STZ administration) of 10. It also gave a general condition ([2]; day 29 of STZ administration) of 10, a general condition ([2]; day 30 of STZ administration) of 10 and a general condition ([2]; day 31 of STZ administration) of 10. The general condition ([2]; day 32 of STZ administration) was 10, the general condition ([2]; day 33 of STZ administration) was 10 and the general condition ([2]; day 34 of STZ administration) was 10. The general condition ([2]; day 35 of STZ administration) was 10.
